In the OligoGym collection:
After the bases stand the sugars from the 5' end (letter, count) and the backbone: PS all phosphorothioate, else s phosphorothioate and o phosphodiester by linkage. Methylation of C is not given here. e = 2'-O-(2-methoxyethyl) (MOE); k = constrained ethyl (cEt); d = 2'-deoxy (DNA); m = 2'-O-methyl

Target: HSD17B13
Details: ASO, HepaRG

Sequence | target mRNA inhibition (1 µM) [%] | further results
CTTATTAAGTACTGTG (sugars k3 d10 k3, PS) | 0 | 
TTCACCACGATTGTTA (sugars k3 d10 k3, PS) | 40 | 
TTTACTGGGATACTAT (sugars k3 d10 k3, PS) | 25 | 
ATATGTCCAGGTTGAG (sugars kkdddddddddkekek, PS) | 28 | 
TTCCCAACGCAACAGT (sugars k3 d10 k3, PS) | 60 | 
TGACAATGTGCAGCTC (sugars k3 d10 k3, PS) | 64 | 
CAGTATCCCCTCAAAT (sugars k3 d10 k3, PS) | 53 | 
TATACTGAAGGCTGTG (sugars k3 d10 k3, PS) | 44 | 
AGAAGATATTATCAGC (sugars k3 d10 k3, PS) | 64 | 
AATATTGAGGCACTGG (sugars kkdddddddddkekek, PS) | 29 | 
GCACAAGCACACTGTA (sugars k3 d10 k3, PS) | 7 | 
GATGATGTTCATGGCT (sugars k3 d10 k3, PS) | 86 | target mRNA inhibition (0.02 µM): 3%; target mRNA inhibition (0.078 µM): 17%; target mRNA inhibition (0.313 µM): 70%; target mRNA inhibition (1.25 µM): 85%
CCCTAATGTGTTTTCC (sugars k3 d10 k3, PS) | 25 | 
GCGGCAAATTTGCTGG (sugars k3 d10 k3, PS) | 0 | 
TGGTCTAAAGTGCTGG (sugars k3 d10 k3, PS) | 61 | 
AATAGCCAGTACAGTT (sugars k3 d9 k3 e1, PS) | 61 | 
AGTATGTGAACTCCGT (sugars k3 d10 k3, PS) | 81 | target mRNA inhibition (0.02 µM): 0%; target mRNA inhibition (0.078 µM): 5%; target mRNA inhibition (0.313 µM): 30%; target mRNA inhibition (1.25 µM): 67%; target mRNA inhibition (5 µM): 86%
ATCCCAACCAAACTTC (sugars k3 d10 k3, PS) | 15 | 
TCACCTTTCATAATGT (sugars kkdddddddddkekek, PS) | 31 | 
GACTACGGACTGGCAA (sugars k3 d10 k3, PS) | 60 | 
AATTTTCAGATCCCGT (sugars k3 d10 k3, PS) | 74 | 
ATATTGATATACGATG (sugars k3 d10 k3, PS) | 0 | 
ACCTCTAAGTTAGCCC (sugars k3 d10 k3, PS) | 28 | 
TTGTATGAGGTCTCTC (sugars k3 d10 k3, PS) | 50 | 

Sequence | target mRNA inhibition (1 µM) [%] | further results
ATGTAATAGCCAGTAC (sugars kkdddddddddkekek, PS) | 47 | 
CTTCATAGTGGACTTC (sugars k3 d9 k3 e1, PS) | 57 | 
ATAGCAAGCCAACAGA (sugars k3 d1 m1 d8 k3, PS) | 1 | 
ACAGATTGGAATGCTA (sugars k3 d9 k3 e1, PS) | 68 | target mRNA inhibition (0.02 µM): 18%; target mRNA inhibition (0.078 µM): 21%; target mRNA inhibition (0.313 µM): 38%; target mRNA inhibition (1.25 µM): 62%; target mRNA inhibition (5 µM): 76%
AGCAGAATTGTGAACG (sugars kkdddddddddkekek, PS) | 31 | 
AAGTTATTATCCCCAC (sugars k3 d10 k3, PS) | 60 | 
AGAGTCGGTCACCTTT (sugars kkdddddddddkekek, PS) | 61 | 
TGACTAATGCAAGATT (sugars k3 d10 k3, PS) | 45 | 
AGGTAAACTAAAGTAC (sugars k3 d10 k3, PS) | 6 | 
GAGAGAACTTATACAA (sugars k3 d10 k3, PS) | 37 | 
TGGTAAACTGTATGCC (sugars k3 d10 k3, PS) | 76 | target mRNA inhibition (0.02 µM): 0%; target mRNA inhibition (0.078 µM): 3%; target mRNA inhibition (0.313 µM): 40%; target mRNA inhibition (1.25 µM): 72%; target mRNA inhibition (5 µM): 85%
TATATACCTGTTGCCT (sugars k3 d10 k3, PS) | 55 | 
GGACCAGGGAATTTAT (sugars k3 d10 k3, PS) | 55 | 
ACTCTATAATAAGGTA (sugars k3 d10 k3, PS) | 42 | 
TCTCTTAGCTGTGCAC (sugars k3 d9 k3 e1, PS) | 69 | 
CCTCATTTAGCAGCTT (sugars k3 d10 k3, PS) | 81 | target mRNA inhibition (0.02 µM): 14%; target mRNA inhibition (0.078 µM): 34%; target mRNA inhibition (0.313 µM): 54%; target mRNA inhibition (1.25 µM): 78%; target mRNA inhibition (5 µM): 88%
CTAAAGCAGGCTACTT (sugars k3 d10 k3, PS) | 32 | 
TGTAGTGGGAGTCGGA (sugars kkdddddddddkekek, PS) | 27 | 
TCTAAGTTAGCCCCCA (sugars k3 d10 k3, PS) | 36 | 
ATGCTAAAAGCTCACC (sugars k3 d10 k3, PS) | 50 | 
TTGAUATTCTGTGGCA (sugars k3 d1 m1 d8 k3, PS) | 60 | 
ATCTATTATGCACTCT (sugars k3 d10 k3, PS) | 24 | 
TATGTAATAGCCAGTA (sugars k3 d10 k3, PS) | 50 | 
AAGGAAGAGGCTAGGG (sugars k3 d10 k3, PS) | 57 | 

Sequence | target mRNA inhibition (1 µM) [%] | further results
GAAGCCACTGTGACGA (sugars k3 d10 k3, PS) | 58 | 
GTTTTTATTGGGCCCA (sugars k3 d10 k3, PS) | 67 | 
AGCATTCATCAGATGT (sugars k3 d10 k3, PS) | 83 | target mRNA inhibition (0.02 µM): 0%; target mRNA inhibition (0.078 µM): 12%; target mRNA inhibition (0.313 µM): 40%; target mRNA inhibition (1.25 µM): 65%; target mRNA inhibition (5 µM): 56%
CAACACTAATCTCAGT (sugars k3 d10 k3, PS) | 4 | 
TTAATACGACTTCCTT (sugars k3 d10 k3, PS) | 35 | 
AATTAAGATGTCCAGG (sugars k3 d10 k3, PS) | 13 | 
GTAGATGGTAAGTCAA (sugars k3 d10 k3, PS) | 86 | target mRNA inhibition (0.02 µM): 20%; target mRNA inhibition (0.078 µM): 35%; target mRNA inhibition (0.313 µM): 55%; target mRNA inhibition (1.25 µM): 84%; target mRNA inhibition (5 µM): 88%
TTAAGGATCATTGCAG (sugars k3 d10 k3, PS) | 14 | 
AGGATAGTCCATGCAA (sugars k3 d9 k3 e1, PS) | 61 | 
TCATTATAAGCTAACT (sugars k3 d10 k3, PS) | 0 | 
AATATCCCACAGAACC (sugars k3 d10 k3, PS) | 60 | 
TCCCAACCAAACTTCC (sugars kkdddddddddkekek, PS) | 27 | 
TCTTAGCTGTGCACTC (sugars k3 d10 k3, PS) | 69 | 
CAAGACATTCTAGCCT (sugars k3 d10 k3, PS) | 58 | 
GAGAGCGATAGATCTC (sugars k3 d10 k3, PS) | 1 | 
ATAGAGGGTCCACTTT (sugars k3 d10 k3, PS) | 21 | 
GGGTGGTAACGGTGAT (sugars k3 d10 k3, PS) | 46 | 
CCAAACTTGCCCATAA (sugars k3 d10 k3, PS) | 45 | 
GAAATATAGAGGGTCC (sugars k3 d10 k3, PS) | 22 | 
AAGAATAGGAGAGTCT (sugars k3 d10 k3, PS) | 70 | 
AAAGATGTACACTGAC (sugars k3 d10 k3, PS) | 57 | 
ATGTATGAGGTCTCCG (sugars k3 d10 k3, PS) | 63 | 
AAAGATCTGGCCAGTT (sugars k3 d10 k3, PS) | 3 | 
AAGGAGTATGACAACT (sugars k3 d10 k3, PS) | 28 | 

Sequence | target mRNA inhibition (1 µM) [%] | further results
TGTAGTGGGAGTCGGA (sugars k3 d10 k3, PS) | 62 | 
AACAGTCTTAAACCTT (sugars k3 d10 k3, PS) | 82 | 
TAAGTAGATGGTAAGT (sugars k3 d10 k3, PS) | 74 | target mRNA inhibition (0.02 µM): 5%; target mRNA inhibition (0.078 µM): 10%; target mRNA inhibition (0.313 µM): 34%; target mRNA inhibition (1.25 µM): 72%; target mRNA inhibition (5 µM): 85%
GTCCATGCAAAAGCAT (sugars k3 d10 k3, PS) | 62 | 
AGTACAGTTCCTTTTC (sugars k3 d10 k3, PS) | 69 | 
CAAATTCATAAGTAGT (sugars k3 d10 k3, PS) | 76 | 
GGAGCTAGATACTCAA (sugars k3 d10 k3, PS) | 42 | 
CCCAAGAGTGGCAGGA (sugars k3 d10 k3, PS) | 29 | 
GTGGCATGGCTACAGA (sugars kkdddddddddkekek, PS) | 59 | 
CTAGTTGCAATGAGAT (sugars k3 d10 k3, PS) | 65 | 
CAAAACAAGATTAGTC (sugars k3 d10 k3, PS) | 18 | 
CTGCAACTTTTAGTCA (sugars k3 d10 k3, PS) | 21 | 
AATATGGGATGAGGTA (sugars k3 d10 k3, PS) | 53 | 
CTCCTTATTTGTTAGA (sugars k3 d10 k3, PS) | 26 | 
TTGCAAGTTTATCAGT (sugars k3 d10 k3, PS) | 66 | 
GGATATGTCATCTAAA (sugars k3 d10 k3, PS) | 68 | 
CTCTATAATAAGGTAA (sugars k3 d10 k3, PS) | 0 | 
TGCTACTTGAACAGTC (sugars k3 d1 m1 d8 k3, PS) | 65 | 
GGCCGCACACTGAAGC (sugars k3 d10 k3, PS) | 9 | 
ACCGCGCTTATTAATA (sugars k3 d10 k3, PS) | 4 | 
TACTTTTAGGGAGGTA (sugars k3 d10 k3, PS) | 28 | 
GTATTGAGATGACAGT (sugars k3 d10 k3, PS) | 68 | target mRNA inhibition (0.02 µM): 0%; target mRNA inhibition (0.078 µM): 0%; target mRNA inhibition (0.313 µM): 3%; target mRNA inhibition (1.25 µM): 47%; target mRNA inhibition (5 µM): 73%
GGAGTAGATGATGGTG (sugars k3 d10 k3, PS) | 31 | 
